The Ki is a dissociation constant, usually derived from enzyme kinetics or from competition with a known ligand. Lower therefore signals a stronger hold on the target. As a reminder, the IC50 is the concentration at which inhibition is half-maximal.

Consider 21 compounds from patent publication US9464084B2, “P2X7 modulators” (Janssen Pharmaceutica NV, priority 2013, dated 2016).

In experiment [1] the target is T1, P2X7 (Homo sapiens (Human), UniProt Q99572). In words: P2X7 antagonism in human PBMCs (LPS + Bz-ATP induced IL-1β release, ELISA).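 On all read-outs here: PBMCs from donor human blood, with a further 1.5 h incubation of the cells in the assay.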 As to conditions: LPS 30 ng/ml, Bz-ATP 0.5 mM; for PBMC 1 μM (% control): compound 1 μM; for PBMC 10 μM (% control): compound 10 μM. Format: cell-based. A general note: ELISA stands for enzyme-linked immunosorbent assay.
Method: Human blood was collected using a blood donor program. PBMCs were isolated from blood using a Ficoll density gradient technique. Briefly, blood was laid on Ficoll solution and centrifuged at RT for 20 minutes at 2000 rpm. The buffy layer (between red blood cells and plasma) was carefully collected by aspiration, washed with PBS and centrifuged again at 1500 rpm for 15 minutes. The resulting cell pellet was washed and plated on 96 well-plates for experiments. For the Mouse/Human Whole Blood experiments, 150 μl of either mouse or human blood was platted on 96 well-plates. Lipopolysaccharide (LPS) (30 ng/ml) was added to each well and incubated for 1 hour. Test compounds were then added and incubated for 30 minutes. The P2X7 agonist, 2′(3′)-O-(4-benzoylbenzoyl) adenosine 5′ triphosphate (Bz-ATP) was then added at a final concentration of 0.5 mM (PBMC) or 1 mM (blood). Cells were incubated for an additional 1.5 hours. At that point, supernatant was collected and stored for IL-1β assay using manufacturer's protocol for enzyme-linked immunosorbent assay (ELISA). Data was expressed as percent control, where control is defined as the difference in IL-1β release in LPS+Bz-ATP samples and LPS only samples. Data was plotted as response (% control) versus concentration to generate IC50 values.
For experiment [2], the target named is T1, P2X7. As to the kind of experiment: Radioligand binding, tritiated A-804598, human P2X7-1321N1 cell membranes.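 Further: ki obtained from the binding IC50 after correction for tracer concentration and tracer affinity.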 The following applies: 1 hour at 4° C.
Method: On the day of the experiment, cell membrane preparations were made according to standard published methods. […] The assay was terminated by filtration (GF/B filters pre-soaked with 0.3% PEI) and washed with washing buffer (Tris-HCl 50 mM). The IC50 generated in the binding assay was corrected for tracer concentration and affinity of the tracer to derive at the affinity (Ki) of the test compounds.
The target of experiment [3] is T1, P2X7. In words: Ca2+ flux (FLIPR) in 1321N1 cells expressing recombinant human P2X7 channel.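 Further: Calcium-4 dye-loaded cells exposed to compound for 30 min before agonist addition, fluorescence change read 180 s after agonist.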 As to conditions: 250 μM BzATP. The format is cell-based.
Method: Cells were seeded at a density of 25000 cells/well (96-well clear bottom black walled plates) in 100 μl volume/well. On the day of the experiment, cell plates were washed with assay buffer, containing (in mM): 130 NaCl, 2 KCl, 1 CaCl2, 1 MgCl2, 10 HEPES, 5 glucose; pH 7.40 and 300 mOs. After the wash, cells were loaded with the Calcium-4 dye (Molecular Device) and incubated in the dark for 60 minutes. Test compounds were prepared at 250× the test concentration in neat DMSO. Intermediate 96-well compound plates were prepared by transferring 1.2 μL of the compound into 300 μL of assay buffer. A further 3× dilution occurred when transferring 50 μL/well of the compound plate to 100 μL/well in the cell plate. Cells were incubated with test compounds and dye for 30 minutes. […] The fluorescence change was measured 180 seconds after adding the agonist.
In a further experiment the target is rat P2X7 (Rattus norvegicus (Rat), UniProt Q64663). As to the kind of experiment: Ca2+ flux (FLIPR) in 1321N1 cells expressing recombinant rat P2X7 channel.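 Further: Calcium-4 dye fluorescence change read 180 s after agonist addition, following 30 min cell preincubation with test compound.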 The format is cell-based. The following applies: 250 μM BzATP. A general note: Calcium assays in cells follow changes in intracellular calcium, usually with a dye or a luminescent sensor.
rat P2X7, sequence (Q64663 whole entry): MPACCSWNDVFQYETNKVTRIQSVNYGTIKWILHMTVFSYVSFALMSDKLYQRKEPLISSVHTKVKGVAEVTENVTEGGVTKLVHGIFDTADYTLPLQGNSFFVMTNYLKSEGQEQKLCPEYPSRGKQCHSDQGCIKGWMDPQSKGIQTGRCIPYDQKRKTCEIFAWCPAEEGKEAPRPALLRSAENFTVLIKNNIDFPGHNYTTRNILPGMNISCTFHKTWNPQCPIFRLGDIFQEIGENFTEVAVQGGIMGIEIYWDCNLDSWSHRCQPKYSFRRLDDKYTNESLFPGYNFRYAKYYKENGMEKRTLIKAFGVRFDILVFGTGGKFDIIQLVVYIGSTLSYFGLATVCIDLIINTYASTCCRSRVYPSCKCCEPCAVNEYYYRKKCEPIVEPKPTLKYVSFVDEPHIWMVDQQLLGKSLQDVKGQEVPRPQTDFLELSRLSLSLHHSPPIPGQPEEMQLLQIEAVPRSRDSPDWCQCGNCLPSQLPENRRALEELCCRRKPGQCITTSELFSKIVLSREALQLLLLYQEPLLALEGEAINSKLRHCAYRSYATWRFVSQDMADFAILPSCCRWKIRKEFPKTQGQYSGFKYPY

T1 sequence (Q99572 whole entry): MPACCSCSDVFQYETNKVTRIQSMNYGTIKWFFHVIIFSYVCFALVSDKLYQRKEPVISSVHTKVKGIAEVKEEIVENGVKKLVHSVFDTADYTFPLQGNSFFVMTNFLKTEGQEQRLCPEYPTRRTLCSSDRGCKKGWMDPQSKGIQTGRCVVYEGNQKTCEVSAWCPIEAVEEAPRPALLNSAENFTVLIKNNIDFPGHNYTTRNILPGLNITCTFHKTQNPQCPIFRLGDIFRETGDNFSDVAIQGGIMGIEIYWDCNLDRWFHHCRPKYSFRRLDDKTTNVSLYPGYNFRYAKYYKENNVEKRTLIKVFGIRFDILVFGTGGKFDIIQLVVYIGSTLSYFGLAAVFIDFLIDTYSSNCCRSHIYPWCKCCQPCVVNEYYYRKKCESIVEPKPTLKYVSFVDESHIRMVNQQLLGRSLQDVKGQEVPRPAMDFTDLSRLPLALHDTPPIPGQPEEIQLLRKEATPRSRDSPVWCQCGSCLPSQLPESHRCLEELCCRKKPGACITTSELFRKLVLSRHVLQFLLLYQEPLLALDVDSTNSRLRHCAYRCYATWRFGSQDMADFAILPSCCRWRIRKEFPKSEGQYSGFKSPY

In the case of `O=C(c1cccc(C(F)(F)F)c1Cl)N1C=Cc2c(nnn2-c2ccccn2)C1` [Example 90, 5-{[2-Chloro-3-(trifluoromethyl)phenyl]carbonyl}-1-pyridin-2-yl-4,5-dihydro-1H-[1,2,3]triazolo[4,5-c]pyridine], at P2X7 [1], the “PBMC 1 μM (% control)” value was determined as 13.3 % control. The compound further yielded a Ki at P2X7 [2] of 29.5 nM. For the same compound, the IC50 at P2X7 [3] came to 10.3 nM; on rat P2X7 it was 973 nM.
Consider `O=C(c1cccc(Cl)c1Cl)N1CCc2c(ncn2-c2ccccn2)C1` [Example 4, (2,3-Dichlorophenyl)(1-(pyridin-2-yl)-6,7-dihydro-1H-imidazo[4,5-c]pyridin-5(4H)-yl)methanone], for which the “PBMC 10 μM (% control)” value on P2X7 [1] is given as −3.7 % control. On P2X7 [2], this compound came in with a Ki of 25.1 nM. The results for the IC50 at P2X7 [3] and at rat P2X7 were 46.5 nM and 2570 nM, respectively.
Consider `CC1Cc2c(-c3ccn[nH]3)n[nH]c2CN1C(=O)c1cccc(C(F)(F)F)c1Cl` (stereo not drawn) [Example 267, (2-chloro-3-(trifluoromethyl)phenyl)(5-methyl-3-(1H-pyrazol-5-yl)-4,5-dihydro-1H-pyrazolo[3,4-c]pyridin-6(7H)-yl)methanone], for which the “PBMC 10 μM (% control)” value on P2X7 [1] is −50.8 % control. This compound also displayed a Ki on P2X7 [2] of 10 nM. Besides, the IC50 amounted to 8.1 nM on P2X7 [3] and 9.5 nM on rat P2X7.
Taken in the same sequence, the figures for `CC1c2nnn(-c3ncccc3F)c2C=CN1C(=O)c1cccc(C(F)(F)F)c1Cl` (stereo not drawn) [Example 82, 5-{[2-Chloro-3-(trifluoromethyl)phenyl]carbonyl}-1-(3-fluoropyridin-2-yl)-4-methyl-4,5-dihydro-1H-[1,2,3]triazolo[4,5-c]pyridine] were 7.9 % control, 57.5 nM, 17.3 nM and 154 nM.
For the compound `Cc1c(C(=O)N2CCc3c(nnn3-c3ncccn3)C2)cccc1C(F)(F)F` [Example 281, (2-methyl-3-(trifluoromethyl)phenyl)(1-(pyrimidin-2-yl)-6,7-dihydro-1H-[1,2,3]triazolo[4,5-c]pyridin-5(4H)-yl)methanone], at P2X7 [1], the “PBMC 10 μM (% control)” value is listed as −1.9 % control. On P2X7 [2], this compound registered a Ki of 2.3 nM. The IC50 on P2X7 [3] came out at 3.1 nM; at rat P2X7, 163 nM.
On the same counts, the results for `Cn1nc2c(c1-c1cncnc1)CCN(C(=O)c1cccc(C(F)(F)F)c1Cl)C2` [Example 113, 6-{[2-Chloro-3-(trifluoromethyl)phenyl]carbonyl}-2-methyl-3-pyrimidin-5-yl-4,5,6,7-tetrahydro-2H-pyrazolo[3,4-c]pyridine] are 42.6 % control, 398 nM, 855 nM and greater than 10000 nM.
On to `Cc1ccnc(-n2nnc3c2CCN(C(=O)c2cccc(C(F)(F)F)c2Cl)C3C)n1` (stereo not drawn) [Example 252, (2-Chloro-3-(trifluoromethyl)phenyl)(4-methyl-1-(4-methylpyrimidin-2-yl)-6,7-dihydro-1H-[1,2,3]triazolo[4,5-c]pyridin-5(4H)-yl)methanone], for which the “PBMC 10 μM (% control)” value on P2X7 [1] was −0.8 % control. This compound also had a Ki on P2X7 [2] of 28.2 nM. Also, the values for the IC50 at P2X7 [3] and at rat P2X7 were 18.8 nM and 22.3 nM, respectively.
Taken in the same sequence, the figures for `COc1cccnc1-n1nnc2c1CCN(C(=O)c1cccc(C(F)(F)F)c1Cl)C2C` (stereo not drawn) [Example 260, (2-Chloro-3-(trifluoromethyl)phenyl)(1-(3-methoxypyridin-2-yl)-4-methyl-6,7-dihydro-1H-[1,2,3]triazolo[4,5-c]pyridin-5(4H)-yl)methanone] were 1.4 % control, 35.5 nM, 27 nM and 6930 nM.
On the same counts, the results for `C[C@H]1Cc2c(nnn2-c2ncccn2)CN1C(=O)c1cccc(C(F)(F)F)c1Cl` (single isomer, unassigned) [Example 222, (6S*)-5-{[2-Chloro-3-(trifluoromethyl)phenyl]carbonyl}-6-methyl-1-pyrimidin-2-yl-4,5,6,7-tetrahydro-1H-[1,2,3]triazolo[4,5-c]pyridine] are 11.8 % control, 25.1 nM, 1.1 nM and 1 nM.
On the same counts, the results for `CC1CN(C(=O)c2cccc(C(F)(F)F)c2Cl)Cc2nnn(-c3ccccc3)c21` (stereo not drawn) [Example 245, (2-Chloro-3-(trifluoromethyl)phenyl)(7-methyl-1-phenyl-6,7-dihydro-1H-[1,2,3]triazolo[4,5-c]pyridin-5(4H)-yl)methanone] are −7.3 % control, 100 nM, 161 nM and 2070 nM.
`CC1c2nnn(-c3ccc(F)cc3)c2C=CN1C(=O)c1cccc(C(F)(F)F)c1Cl` (stereo not drawn) [Example 81, 5-{[2-Chloro-3-(trifluoromethyl)phenyl]carbonyl}-1-(4-fluorophenyl)-4-methyl-4,5-dihydro-1H-[1,2,3]triazolo[4,5-c]pyridine]: the “PBMC 10 μM (% control)” value at P2X7 [1] was 5.9 % control. This compound came in with a Ki on P2X7 [2] of 63.1 nM. The IC50 on P2X7 [3] stood at 73.5 nM; at rat P2X7, 108 nM.
Consider `CCOC(=O)C1c2ncn(-c3ccccn3)c2CCN1C(=O)c1cccc(C(F)(F)F)c1Cl` (stereo not drawn) [Example 24, Ethyl 5-(2-chloro-3-(trifluoromethyl)benzoyl)-1-(pyridin-2-yl)-4,5,6,7-tetrahydro-1H-imidazo[4,5-c]pyridine-4-carboxylate], for which the “PBMC 1 μM (% control)” value on P2X7 [1] worked out at 2.9 % control. Moreover, the Ki at P2X7 [2] was 91.2 nM. The IC50 at P2X7 [3] was determined as 35 nM; at rat P2X7, 34.2 nM.
In the case of `Cn1ccc(-n2nnc3c2CCN(C(=O)c2cccc(C(F)(F)F)c2Cl)C3)n1` [Example 127, (2-Chloro-3-(trifluoromethyl)phenyl)(1-(1-methyl-1H-pyrazol-3-yl)-6,7-dihydro-1H-[1,2,3]triazolo[4,5-c]pyridin-5(4H)-yl)methanone], the “PBMC 10 μM (% control)” value on P2X7 [1] turned out to be 9.2 % control. In addition, the Ki on P2X7 [2] amounted to 39.8 nM. The figures for the IC50 at P2X7 [3] and on rat P2X7 were 22.1 nM and 89.1 nM, respectively.
Taken in the same sequence, the figures for `Cc1cccc(-n2nnc3c2CCN(C(=O)c2cccc(C(F)(F)F)c2Cl)C3C)n1` (stereo not drawn) [Example 302, (2-chloro-3-(trifluoromethyl)phenyl)(4-methyl-1-(6-methylpyridin-2-yl)-6,7-dihydro-1H-[1,2,3]triazolo[4,5-c]pyridin-5(4H)-yl)methanone] were −2.8 % control, 31.6 nM, 11.6 nM and 14.3 nM.
Taken in the same sequence, the figures for `CC1c2nnn(-c3ncccn3)c2CCN1C(=O)c1ccc(Cl)cc1F` (stereo not drawn) [Example 275, (4-chloro-2-fluorophenyl)(4-methyl-1-(pyrimidin-2-yl)-6,7-dihydro-1H-[1,2,3]triazolo[4,5-c]pyridin-5(4H)-yl)methanone] were −8.3 % control, 24.5 nM, 46.9 nM and 673 nM.
As to `CC1c2nnn(-c3ncccn3)c2C=CN1C(=O)c1cccc(C(F)(F)F)c1Cl` (stereo not drawn) [Example 79, 5-{[2-Chloro-3-(trifluoromethyl)phenyl]carbonyl}-4-methyl-1-pyrimidin-2-yl-4,5-dihydro-1H-[1,2,3]triazolo[4,5-c]pyridine], on P2X7 [1], the “PBMC 1 μM (% control)” value is 23.2 % control. Also, the Ki on P2X7 [2] came to 31.6 nM. The IC50 on P2X7 [3] was 6.2 nM; on rat P2X7, 86.5 nM.
Regarding `O=C(c1cccc(C(F)(F)F)c1Cl)N1C=Cc2c(nnn2-c2cnccn2)C1` [Example 89, 5-{[2-Chloro-3-(trifluoromethyl)phenyl]carbonyl}-1-pyrazin-2-yl-4,5-dihydro-1H-[1,2,3]triazolo[4,5-c]pyridine], the “PBMC 1 μM (% control)” value at P2X7 [1] was −1.5 % control. Further, the affinity at P2X7 [2] corresponds to a Ki of 15.8 nM. The IC50 on P2X7 [3] was 5.5 nM; at rat P2X7, 908 nM.
Taken in the same sequence, the figures for `CN(C)CC1c2ncn(-c3ccccn3)c2CCN1C(=O)c1cccc(C(F)(F)F)c1Cl` (stereo not drawn) [Example 31, 1-(5-{[2-Chloro-3-(trifluoromethyl)phenyl]carbonyl}-1-pyridin-2-yl-4,5,6,7-tetrahydro-1H-imidazo[4,5-c]pyridin-4-yl)-N,N-dimethylmethanamine] were 50.8 % control, 316 nM, 156 nM and 107 nM.
As to `O=C(C1c2ncn(-c3ccccn3)c2CCN1C(=O)c1cccc(C(F)(F)F)c1Cl)N1CCC1` (stereo not drawn) [Example 35, 4-(Azetidin-1-ylcarbonyl)-5-{[2-chloro-3-(trifluoromethyl)phenyl]carbonyl}-1-pyridin-2-yl-4,5,6,7-tetrahydro-1H-imidazo[4,5-c]pyridine], on P2X7 [1], the “PBMC 1 μM (% control)” value is on record as 31.6 % control. This compound also registered a Ki at P2X7 [2] of 316 nM. Also, the IC50 on P2X7 [3] and on rat P2X7 was 316 nM throughout.
With `O=C(c1ccc(Cl)cc1F)N1CCc2c(nnn2-c2ncccn2)C1` [Example 280, (4-chloro-2-fluorophenyl)(1-(pyrimidin-2-yl)-6,7-dihydro-1H-[1,2,3]triazolo[4,5-c]pyridin-5(4H)-yl)methanone], the “PBMC 10 μM (% control)” value at P2X7 [1] is given as 3.4 % control. This compound also had a Ki on P2X7 [2] of 63.1 nM. The figures for the IC50 at P2X7 [3] and at rat P2X7 were 568 nM and 1230 nM, respectively.
For the compound `CC1Cc2c(nnn2-c2cc[nH]n2)CN1C(=O)c1cccc(C(F)(F)F)c1F` (stereo not drawn) [Example 189, (2-fluoro-3-(trifluoromethyl)phenyl)(6-methyl-1-(1H-pyrazol-3-yl)-6,7-dihydro-1H-[1,2,3]triazolo[4,5-c]pyridin-5(4H)-yl)methanone], the “PBMC 10 μM (% control)” value at P2X7 [1] worked out at 0.5 % control. On P2X7 [2], this compound gave a Ki of 13.5 nM. Besides, the IC50 at P2X7 [3] was determined as 3.9 nM; at rat P2X7 it was 6.3 nM.
